From patent US5334595A, “Pyrazoloquinolones as anticancer agents” (priority 1992, dated 1994)
pIC50: −log10 of the molar value. Like-named read-outs stand apart in the source and are kept apart here.

Assays:
[1] = test system: P388 murine leukemia cells; assay: In vitro cytotoxicity, continuous (48-hour) exposure of P388 cells; assay type: cell-based; details: Mus musculus, read-out: in vitro cytotoxicity IC50, cont. exp.
Procedure, shortened: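 For continuous exposure, log-phase P388 murine leukemia cells were co-incubated with a range of compound concentrations for 48 hours and total cells counted on a Coulter counter. For one-hour exposure, survival was scored as soft-agar colonies after 7-10 days at 37° C and 5% CO2. Survival is expressed relative to untreated control.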

[2] = In vivo antitumor assay, Mam16C/RP (sc); design: species or system mice; details: mouse, in vivo, drug iv
Text: (§1) Mice: Inbred: C3H/He and NCR-nu; and Hybrids: B6D2F1 (C57BL/6 females×DBA/2 males, CD2F1 (Balb/c females×DBS/2 males) and B6C3fl (C57BL/6×C3H) were bred at Wayne State University from strains obtained from the Frederick Cancer Research Facility, Frederick, Maryland or purchased from commercial suppliers.
(§2) Tumors: Murine Tumor: P388 and an adriamycin-resistant (ADR) subline P388/ADR leukemia and the following transplantable solid tumors of mice were used for in vivo testing: B16 melanoma (B16), pancreatic ductal adenocarcinoma No. 03 (Pane 03), colon adenocarcinoma No. 38 (colo 38), lung carcinoma No. 12 (LC 12), mammary ductal adenocarcinoma No. 16/C (Mam16C) and an adriamycin-resistant subline Mam16C/ADR. Human tumor: A single human tumor, mammary carcinoma MX-1 was used for in vivo testing. All tumors are in the Developmental Therapeutics Program frozen tumor respository, maintained by the Biological Testing Branch, Frederick Maryland. Each has a detailed description, code identification number, and list of references at the National Tumor Repository. Murine tumors were maintained in the mouse strain of origin and were transplanted in the appropriate F1 hydrid (or the strain of origin) for therapy trials. Human mammary carcinoma MX-1 (MX1) was maintained as a subcutaneous implant in either athymic Swiss (Cr: NIH(S)-nu) or athymic random bred (NCR-nu) mice and transplanted in NCR-nu for therapy trials.
(§3) Chemotherapy: For pancreatic ductal adenocarcinoma No. 3, colon adenocarcinoma No. 38 (colo 38), lung carcinoma No. 12 LC 12) and both adriamycin-sensitive (RP) and-resistant (ADR) mammary ductal adenocarcinoma No. 16 (Mam16) tumors, bilateral tumor implants were used to help ensure a more uniform tumor burden per mouse (thus reducing the requirement for greater numbers of mice per group). The animals necessary to begin an experiment were pooled, implanted bilaterally s.c. on day zero with 30-60 mg tumor fragments using a 12-gauge trocar, and again pooled before randomization to the various treatment and control groups. Chemotherapy was started within three days after tumor implantation while the number of cells per mouse was relatively small (1×10^7 -1×10^8 cells).
(§4) Quantitative end points used to assess antitumor activity included % Increased Life Span (% ILS), Tumor Cell Kill (Log10 kill), and Tumor Growth Inhibition (T/C). Long Term Survivors (45 or 60 day) were excluded from calculations of %ILS and Tumor Cell Kill.
(§5) Tumors were measured with a caliper once or twice weekly (as needed) until either tumors exceeded 1600 mg or cure was assured. Tumor weights were estimated from two-dimensional measurements: Tumor Weight (mg)=(a×b^2) / 2, where a and b are the tumor length and width (ram) respectively. Measurements were carried out simultaneously in both treatment and control groups. When the control group tumors reached approximately 750-1500 mg in size (median of group), the median tumor weight of each group was determined (including zeros). The T/C value in percent is an indication of antitumor effectiveness. The % T/C was calculated from the following formula for solid murine tumor models: [formula] where T and C are median tumor weights of the treatment and control groups, respectively. […] A T/C value <10% is indicative of a high degree of antitumor activity and is the level used by National Cancer Institute to justify further development if other requirements are met (termed DN-2 level activity). By convention the T/C value for the mammary carcinoma MX-1 models is calculated by the parameter of change in tumor weight .

[3] = test system: adriamycin-sensitive (RP) mammary ductal adenocarcinoma No. 16; assay: In vivo antitumor assay, Mam16C/RP (sc); design: species or system mice; details: drug iv
Text: as §1, §2, §3, §4, §5

[4] = test system: adriamycin-resistant subline Mam16C/ADR; assay: In vivo antitumor assay, Mam16C/ADR; design: species or system mice; details: drug iv, qd 1,3,5, exp 1120A
Text: as §1
as §2, with “Murine tumors were maintained in the mouse strain of origin and were transplanted in the appropriate F1 hydrid (or the strain of origin) for therapy trials. Human mammary carcinoma MX-1 (MX1) was maintained as a subcutaneous implant in either athymic Swiss (Cr: NIH(S)-nu) or athymic random bred (NCR-nu) mice and transplanted in NCR-nu for therapy trials.” left out
(§6) Quantitative end points used to assess antitumor activity included % Increased Life Span (% ILS), Tumor Cell Kill (Log10 kill), and Tumor Growth Inhibition (T/C). […]
(§7) The log10 cell kill was calculated from the following formula: [formula] where T-C is the tumor difference in the median day of death between the treated (T) and the control (C) groups and Td is the tumor doubling time (in days), the latter estimated from the best fit straight line from a log-linear growth plot of the control-group tumors in exponential growth. […]
(§8) Tumors were measured with a caliper once or twice weekly (as needed) until either tumors exceeded 1600 mg or cure was assured. […] When the control group tumors reached approximately 750-1500 mg in size (median of group), the median tumor weight of each group was determined (including zeros). […] The % T/C was calculated from the following formula for solid murine tumor models: [formula] where T and C are median tumor weights of the treatment and control groups, respectively. […]

[5] = In vivo antitumor assay, Mam16C/ADR; design: species or system mice; details: mouse, in vivo, drug iv, qd 1,3,5, exp 1120A, footnote 2: 2 lower doses equally active to modestly more active
Text: as §1
as §2, with “Murine tumors were maintained in the mouse strain of origin and were transplanted in the appropriate F1 hydrid (or the strain of origin) for therapy trials. Human mammary carcinoma MX-1 (MX1) was maintained as a subcutaneous implant in either athymic Swiss (Cr: NIH(S)-nu) or athymic random bred (NCR-nu) mice and transplanted in NCR-nu for therapy trials.” left out
as §6, §7, §8

[6] = test system: lung carcinoma No. 12 (LC 12); assay: In vivo antitumor assay, LC12(sc); design: species or system mice; details: drug iv, qd 3,5, exp 1161
Text: as §1
as §2, with “Human mammary carcinoma MX-1 (MX1) was maintained as a subcutaneous implant in either athymic Swiss (Cr: NIH(S)-nu) or athymic random bred (NCR-nu) mice and transplanted in NCR-nu for therapy trials.” left out
as §6
Tumors were measured with a caliper once or twice weekly (as needed) until either tumors exceeded 1600 mg or cure was assured. […] When the control group tumors reached approximately 750-1500 mg in size (median of group), the median tumor weight of each group was determined (including zeros). […] The % T/C was calculated from the following formula for solid murine tumor models: [formula] where T and C are median tumor weights of the treatment and control groups, respectively. […] By convention the T/C value for the mammary carcinoma MX-1 models is calculated by the parameter of change in tumor weight .

[7] = test system: pancreatic ductal adenocarcinoma No. 03; assay: In vivo antitumor assay, Panc03(sc); design: species or system mice; details: for Log Kill: Panc03(sc), drug iv
Text: as §1, §2, §3, §4
(§9) The log10 cell kill was calculated from the following formula: [formula] where T-C is the tumor difference in the median day of death between the treated (T) and the control (C) groups and Td is the tumor doubling time (in days), the latter estimated from the best fit straight line from a log-linear growth plot of the control-group tumors in exponential growth. The conversion of the T-C values to log10 cell kill is possible because the Td for tumors regrowing post-treatment approximated the Td values of the tumors in untreated control mice.
Tumors were measured with a caliper once or twice weekly (as needed) until either tumors exceeded 1600 mg or cure was assured. Tumor weights were estimated from two-dimensional measurements: Tumor Weight (mg)=(a×b^2) / 2, where a and b are the tumor length and width (ram) respectively. Measurements were carried out simultaneously in both treatment and control groups. When the control group tumors reached approximately 750-1500 mg in size (median of group), the median tumor weight of each group was determined (including zeros). The T/C value in percent is an indication of antitumor effectiveness. The % T/C was calculated from the following formula for solid murine tumor models: [formula] where T and C are median tumor weights of the treatment and control groups, respectively. A T/C equal to or less than 42% is considered significant antitumor activity. […]

[8] = In vivo antitumor assay, Mam16C(sc); design: species or system mice; details: mouse, in vivo, drug iv, qd 1-4, exp 1132
Text: as §1, §2, §3, §4, §9, §8

[9] = test system: mammary ductal adenocarcinoma No. 16/C (Mam16C); assay: In vivo antitumor assay, Mam16C(sc); design: species or system mice; details: drug iv
Text: as §1, §2, §3, §4, §9, §8

[10] = P388, continuous exposure (48-hour)
[11] = Mam16C/RP (sc), bid 1-5, exp 924

SMILES: Cc1cc(-c2c(F)cc3c4nn(CCNCCO)c(=O)c-4cn(C4CC4)c3c2F)cc(C)n1 [Example 17]
- pIC50 [1, 10]: 5.92

SMILES: Cc1cc(-c2c(F)cc3c4nn(CCN(C)C)c(=O)c-4cn(C4CC4)c3c2F)cc(C)n1.O=C(O)/C=C/C(=O)O [Example 1, 5-Cyclopropyl-6,8-difluoro-2,5-dihydro-2-[2-(dimethylamino)-ethyl]-7-(2,6-dimethyl-4-pyridinyl)-3H-pyrazolo[4,3-c]quinolin-3-one (E)-2-butendioate (1:1)]
- MTD [2, 11]: 20 mg/kg
- Log Kill [3, 11]: 1.2
- T/C % [3, 11]: 13%
- Log Kill [4]: 0.50
- T/C % [4]: 26%
- MTD [5]: 58 mg/kg
- Log Kill [6]: 0.76
- T/C % [6]: 25%
- pIC50 ([1]; P388, 48 h): 7.40
- Log Kill ([7]; qd 3,6,9, exp 1146): 0.66
- Log Kill ([7]; qd 3, exp 895A): 0.66
- MTD [8]: 43 mg/kg
- Log Kill ([9]; qd 1,3,5, exp 1142A): 1.9
- T/C % ([9]; qd 1,3,5, exp 1142A): 18%
- Log Kill ([9]; qd 1-4, exp 1132): 1.3
- T/C % ([9]; qd 1-4, exp 1132): 7%

SMILES: Cc1cc(-c2c(F)cc3c4nn(CCCN(C)C)c(=O)c-4cn(C4CC4)c3c2F)cc(C)n1 [Example 14]
- MTD ([2]; Mam16C/RP, bid 1-8, exp 924): 101 mg/kg
- Log Kill ([3]; Mam16C/RP, bid 1-8, exp 924): 1.5
- T/C % ([3]; Mam16C/RP, bid 1-8, exp 924): 8%
- pIC50 [1, 10]: 6.42
- Log Kill ([7]; qd 3-5, exp 895A): 0.60
- MTD ([7]; mouse, in vivo, iv): 64 Mg/Kg
